Ends that are not written are not given here.
What was measured:
[1] = test system: anti-IFNr AutoAbs; test: Protein mapping ELISA of recombinant IFNr proteins with blood plasma; assay type: binding, human; details: patients' blood plasma, OD 405 nm
[2] = test system: anti-IFNr AutoAbs; test: Immunoblotting (Western blot / dot blot) with patient or control plasma; assay type: binding, human; details: plasma from healthy donors
Protocol: Recombinant IFNr[…] (R&D Systems) and different truncated forms of recombinant IFNr[…] were subjected to SDS-PAGE using a 10% gel under reducing conditions at 120 V for 2 hours. The proteins were transferred to a PVDF membrane (Invitrogen Life Technologies) at 250 mA for 2 hours. The membrane was blocked in 5% human normal serum albumin (Aventis) in TBS with 0.1% Tween 20 overnight at 4° C. The membrane was incubated with a 1/100 dilution of patient or control blood plasma for 3 hours at room temperature. After being washed three times, the membrane was incubated in a 1/10,000 dilution of mouse anti-human IgG conjugated with horseradish peroxidase (Jackson ImmunoResearch Laboratories) for 1 hour at room temperature. After being washed three times, the membrane was developed with ECL (Merck Millipore).
Plasma from 3 healthy donors had no response to either IFNr1-131 or EE-IFNr.

[3] = test system: p-STAT1 in PBMCs; test: p-STAT1 intracellular stain in PBMCs (CD14+ gated); assay type: cell-based, human
Protocol: A total of 10^6 PBMCs in 200 μL RPMI-1640 with 10% FBS and 1% penicillin/streptomycin was used. […] After 30 minutes of stimulation in a 37° C. incubator, monocytes were identified by FITC-CD14 (BD Pharmingen) surface staining. Fixed by adding 250 μL of FASC lysing solution (BD Pharmingen) and incubated at room temperature for 15 minutes in the dark, followed by two washes with PBS. To permeabilize the cells, 500 μl of ice-cold absolute methanol was added to each tube and incubated for 15 minutes on ice in the dark, followed by two washes with PBS. Next, PE-phospho-STAT1 (pY701) antibody (BD Pharmingen) was added, followed by 30 minutes incubation on ice in the dark. Again, cells were washed with 2 mL of PBS before resuspension in the 500 μL of PBS. Data were collected with a FACSVerse flow cytometer (BD Biosciences) and analyzed using FACSuite software (BD Biosciences).
Representative histograms (FIG. 2c(1)-FIG. 2c(2)) and MFI (median fluorescence intensity) (FIG. 2d) are shown.
After being gated on the CD14^+, p-STAT-1 levels were determined by flow cytometry with the p-STAT-1 monoclonal antibody. Representative histograms (FIG. 4a(1)-FIG. 4a(2)) and MFI (median fluorescence intensity) (FIG. 4b) are shown.

[4] = test system: IL-12p40 in PBMCs; assay type: cell-based, human
[5] = test system: HLA-DR expression in PBMCs; test: HLA-DR expression in PBMCs (CD14+ gated); assay type: cell-based, human; details: IFNr AutoAbs patients' PBMCs pre-incubated with 10% autologous plasma
Protocol: A total of 10^6 PBMCs in 200 μL RPMI-1640 with 10% FBS and 1% penicillin/streptomycin was used. Cells were then stimulated with 500 IU IFNr, IFNr_1-131 or EE-IFNr⋅ in 160 μL RPMI-1640 pre-incubated with 40 μL of normal blood plasma or patient blood plasma for 10 min at room temperature. After 24 hours of stimulation in a 37° C. incubator, monocytes were identified by FITC-CD14 (BD Pharmingen) surface staining. Next, PE-HLA-DR antibody (BD Pharmingen) was added followed by 30 minutes of incubation on ice in the dark. Cells were again washed with 2 ml of PBS before resuspension in 500 μl of PBS. Data were collected with a FACSVerse flow cytometer (BD Biosciences) and analyzed using FACSuite software (BD Biosciences).
After being gated on the CD14^+, HLA-DR expression levels were determined by flow cytometry with the HLA-DR monoclonal antibody. Representative histograms (FIG. 4d(1)-FIG. 4d(2)) and MFI (median fluorescence intensity) (FIG. 4e) are shown.

[6] = test system: THP1 cells; test: HLA-DR expression in THP1 cells; assay type: cell-based; details: in the presence of anti-IFNr AutoAbs
[7] = test system: p-STAT1 in whole blood; test: p-STAT1 in whole blood ex vivo; assay type: cell-based, human
From the text: Representative histograms (FIG. 4f(1)-FIG. 4f(2)) and MFI (median fluorescence intensity) (FIG. 4g) are shown.

[8] = test system: IL-12p40 in whole blood; assay type: cell-based, human
[9] = test system: WKY/NcrlNarl rats; test: Immunization of rats with Noc2 or IFNr peptide conjugated with OVA; assay type: in vivo, rat; details: 0.25 mg peptide-OVA, booster every two weeks
Protocol: The inventor immunized WKY/NcrlNarl rats with 0.25 mg Noc2 or IFNr[…] peptide (Noc2: […] (SEQ NO: 31); IFNr: […] (SEQ NO: 32)) conjugated with ovalbumin (OVA) and gave a booster dose every two weeks after the initial injection (day 0). After 70 days, the inventor checked the antibody production level by dot blot or ELISA at each injection. All rats were sacrificed ten days after the tenth injection (day 136) and whole blood was collected. After collection of the whole blood, the blood was allowed to clot by leaving it undisturbed at room temperature 15 minutes. Clots were removed by centrifuging at 1500 g for 10 minutes in a refrigerated centrifuge. Sera were aliquoted and stored at −20° C. for further use.
Blood sera from pre-immunized rats (n=6), Noc2 peptide-immunized rats (n=4) and Peptide 6-immunized rats (n=2) were mapped to control peptide, Peptide 6 and Noc2 peptide from Aspergillus terreus or Aspergillus fumigatus. This is represented as the mean optical density (OD) at 405 nm.

[10] = biological target: T1, human IFNr (Homo sapiens, UniProt P01579); test: Blocking of hIFNr detection by sera of immunized rats; assay type: binding; details: sera incubated with 200 pg/mL of human IFNr
T1 sequence (P01579 24-166): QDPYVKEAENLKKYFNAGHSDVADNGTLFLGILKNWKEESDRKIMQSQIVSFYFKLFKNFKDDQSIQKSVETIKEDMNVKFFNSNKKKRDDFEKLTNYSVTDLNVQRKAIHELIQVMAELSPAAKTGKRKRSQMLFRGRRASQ
Protocol: Blood plasma from patients and donors was serially diluted (10^−1 to 10^−6) and incubated with recombinant human IFNr at a final concentration of 200 pg/mL for 1 hour at 37° C. The IFNr level was measured with a human IFNr ELISA kit from BD Biosciences according to the manufacturer's recommendations. All experiments were performed in duplicate.
However, blood sera from Noc2 peptide-immunized rats (n=4) and Peptide 6-immunized rats (n=2) at dilutions of up to 1/10^2 inhibited the detection of hIFNr.

[11] = test system: THP1 cells; test: p-STAT1 in THP1 cells pre-incubated with sera of immunized rats and treated with IFNr; assay type: cell-based; details: 50% sera

| Substance | affinity of anti-IFNr AutoAbs by ELISA [1] | binding of plasma from healthy controls in Western blot [2] | p-STAT1 signaling restored / up-regulated ([3]; IFNr AutoAbs patients' PBMCs pre-incubated with 10% autologous blood plasma) | phosphorylation of STAT1 ([3]; controls' PBMCs pre-incubated with 20% blood plasma with anti-IFNr AutoAbs from patients) | p-STAT1 signaling ([3]; controls' PBMCs, 20% control blood plasma) | IL-12p40 expression [4] | IL-12p40 production restored [4] | HLA-DR expression levels restored / up-regulated [5] | HLA-DR expression [6] | p-STAT1 signaling restored / up-regulated ([7]; IFNr AutoAbs patients' whole blood) | p-STAT1 signal ([7]; controls' whole blood) | IL-12p40 production restored [8] | antibodies developed after immunization [9] | blocking of hIFNr detection by sera of immunized rats (serum dilution) [10] | p-STAT1 signaling after recombinant IFNr in presence of sera of immunized rats [11] |
| --- | --- | --- | --- | --- | --- | --- | --- | --- | --- | --- | --- | --- | --- | --- | --- |
| EE-IFNr: IFNr_1-131 protein with human P121-127 SPAAKTG sequence substituted with murine LPESSLR sequence (SEQ NO: 1) (listed as Mus musculus) | markedly decreased in comparison with wild type (WT) IFNr_1-131 | no response | four of six | could induce the phosphorylation of STAT1 | Up-regulation of the p-STAT1 signaling was observed | did restore IL-12p40 expression | three of six | four of six | up-regulation of HLA-DR expression | four of six | up-regulated | three of six | – | – | – |
| CAAKTGKRKRSQM (also: conjugated to ovalbumin; UniProt P01579 146-157, looked up, fragment) | – | – | – | – | – | – | – | – | – | – | – | – | developed antibodies to human IFNr, which could cross-react with Aspergillus Noc2 | can block human recombinant IFNr | decreased up-regulation of p-STAT1 signaling |

— patent US10273278B2, “Epitope recognized by anti-interferon gamma autoantibodies in patients with disseminated mycobacterial infections and the application therefor” (priority 2015, dated 2019)
